According to patent publication US12612410B2 (CHILDREN'S HOSPITAL MEDICAL CENTER, priority 2020, dated 2026):

Columns and labels:
FLT3 = target: T1, FLT3 (Homo sapiens, UniProt P36888); assay: RBC HotSpot Kinase Assay, FLT3; assay type: biochemical; set-up: purchased Reaction Biology (RBC), HotSpot kinase assay; settings: isolated kinase, 33P-ATP
T1 sequence (P36888 27-993): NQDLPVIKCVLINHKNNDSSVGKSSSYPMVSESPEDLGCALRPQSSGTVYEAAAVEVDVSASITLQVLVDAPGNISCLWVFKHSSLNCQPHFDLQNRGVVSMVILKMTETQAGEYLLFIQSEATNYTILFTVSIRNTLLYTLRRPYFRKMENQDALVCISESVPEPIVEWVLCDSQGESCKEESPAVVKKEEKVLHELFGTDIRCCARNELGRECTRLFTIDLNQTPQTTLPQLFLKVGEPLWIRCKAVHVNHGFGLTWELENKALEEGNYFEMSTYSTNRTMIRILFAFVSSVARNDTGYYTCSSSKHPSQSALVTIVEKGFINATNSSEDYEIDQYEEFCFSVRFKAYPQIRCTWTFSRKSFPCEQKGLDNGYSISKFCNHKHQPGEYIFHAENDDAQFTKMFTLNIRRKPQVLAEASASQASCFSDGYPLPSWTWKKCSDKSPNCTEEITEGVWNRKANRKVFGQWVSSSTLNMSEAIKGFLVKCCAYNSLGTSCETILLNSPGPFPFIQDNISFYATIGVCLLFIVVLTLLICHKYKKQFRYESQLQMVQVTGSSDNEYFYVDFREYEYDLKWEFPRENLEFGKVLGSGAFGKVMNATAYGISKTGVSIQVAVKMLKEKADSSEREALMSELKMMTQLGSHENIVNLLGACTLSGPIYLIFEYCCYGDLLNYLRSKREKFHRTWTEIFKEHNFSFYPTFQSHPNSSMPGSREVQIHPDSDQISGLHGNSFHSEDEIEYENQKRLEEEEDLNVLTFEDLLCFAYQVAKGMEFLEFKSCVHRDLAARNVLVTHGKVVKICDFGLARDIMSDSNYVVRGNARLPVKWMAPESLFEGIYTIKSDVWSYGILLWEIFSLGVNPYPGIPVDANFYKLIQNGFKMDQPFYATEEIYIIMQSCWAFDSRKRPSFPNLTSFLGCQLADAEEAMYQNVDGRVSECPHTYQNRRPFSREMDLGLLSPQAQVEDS
Text: (§1) This assay uses the isolated kinase enzyme. This assay is very useful for determining competition of the inhibitor for ATP and/or substrates and for measuring the kinetics of enzyme inhibition. […] Unlike kinase binding assays that measure competition for ATP, the HotSpot Kinase Assay is a functional assay that measures catalytic activity; as such it measures relative functional potency regardless of the mechanism of enzyme inhibition. This assay uses the form of the various enzymes that are easiest to express, which may not necessarily be the form of the enzyme that exist in the cell. (Sometimes the carboxy terminus has been truncated to aid in expression, or, if it is a receptor kinase, the enzyme itself is isolated from the other parts of the receptor that are involved in regulating kinase activity.)
(§2) The reagent used was as follows: Base Reaction buffer; 20 mM Hepes (pH 7.5), 10 mM MgCl2, 1 mM EGTA, 0.01% Brij35, 0.02 mg/ml BSA, 0.1 mM Na3VO4, 2 mM DTT, 1% DMSO. Required cofactors were added individually to each kinase reaction.
(§3) The reaction procedure was as follows: • 1) Substrates were prepared in freshly prepared Reaction Buffer. • 2) Any required cofactors were delivered to the substrate solution above. • 3) Kinase was delivered into the substrate solution and gently mixed. • 4) Compounds were delivered in 100% DMSO into the kinase reaction mixture by Acoustic technology (Echo550; nanoliter range), followed by incubation for 20 min at room temp. • 5)^33P-ATP was delivered into the reaction mixture to initiate the reaction. • 6) The mixture was incubated for 2 hours at room temperature. • 7) Kinase activity was detected by P81 filter-binding method.

IRAK1 = target: T2, IRAK1 (Homo sapiens, UniProt P51617); assay: RBC HotSpot Kinase Assay, IRAK1; assay type: biochemical; settings: isolated kinase, 33P-ATP
T2 construct: purchased Reaction Biology (RBC), HotSpot kinase assay
Text: as §1, §2, §3

MOLM14 F691L cells = assay: MOLM14 F691L cell viability assay (Cell Titer Glo); assay type: cell-based
Method: (§4) Both cell lines have activated FLT3 receptors, each of which carry additional resistance mutations in the kinase domain (D835Y and F691L, respectively).
(§5) MOLM14 D835Y and MOLM14 F691L cells were grown in RPMI-1640 media supplemented with 20% fetal bovine serum (FBS). For viability/cytotoxicity assessments, cells were seeded into 1536-well white polystyrene tissue culture-treated Greiner plates using a Multidrop Combi dispenser (ThermoFisher), in final volume 5 μL of growth media per well, at a density of 1000 cells per well. After cell addition, 23 nL of test compound were transferred into individual wells (22 doses tested for each test compound, with a 1:2 dilution series starting at 10 μM) via a 1536 pin-tool. Bortezomib (final concentration 2.3 μM) was used as a positive control for cell cytotoxicity. Plates were incubated for 48 hours at standard incubator conditions covered by a stainless steel gasketed lid to prevent evaporation. 48 hours post compound addition, 3 μL of Cell Titer Glo (Promega) were added to each well and plates were incubated at room temperature for 15 minutes with the stainless-steel lid in place. Luminescence readings were taken using a Viewlux imager (PerkinElmer) with a 2 second exposure time per plate.

MOLM14 D835Y cells = assay: MOLM14 D835Y cell viability assay (Cell Titer Glo); assay type: cell-based
Method: as §4, §5

IRAK4 = target: T3, IRAK4 (Homo sapiens, UniProt Q9NWZ3); assay: RBC HotSpot Kinase Assay, IRAK4; assay type: biochemical; set-up: purchased Reaction Biology (RBC), HotSpot kinase assay; settings: isolated kinase, 33P-ATP
T3 sequence (Q9NWZ3 1-460): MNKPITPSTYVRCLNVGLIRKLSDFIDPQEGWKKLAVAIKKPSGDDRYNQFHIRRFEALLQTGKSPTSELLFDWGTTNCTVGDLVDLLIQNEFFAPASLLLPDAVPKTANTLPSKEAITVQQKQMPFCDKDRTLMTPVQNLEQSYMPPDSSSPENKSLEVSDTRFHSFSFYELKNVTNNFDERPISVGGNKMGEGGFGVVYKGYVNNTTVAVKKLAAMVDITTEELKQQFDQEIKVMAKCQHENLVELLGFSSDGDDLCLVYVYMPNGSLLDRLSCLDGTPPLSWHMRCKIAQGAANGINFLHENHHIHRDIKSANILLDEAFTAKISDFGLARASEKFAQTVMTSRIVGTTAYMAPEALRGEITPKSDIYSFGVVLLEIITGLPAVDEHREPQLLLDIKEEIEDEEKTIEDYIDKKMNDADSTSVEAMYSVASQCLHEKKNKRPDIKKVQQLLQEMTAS
Text: as §1, §2, §3

T2 sequence (P51617 whole entry): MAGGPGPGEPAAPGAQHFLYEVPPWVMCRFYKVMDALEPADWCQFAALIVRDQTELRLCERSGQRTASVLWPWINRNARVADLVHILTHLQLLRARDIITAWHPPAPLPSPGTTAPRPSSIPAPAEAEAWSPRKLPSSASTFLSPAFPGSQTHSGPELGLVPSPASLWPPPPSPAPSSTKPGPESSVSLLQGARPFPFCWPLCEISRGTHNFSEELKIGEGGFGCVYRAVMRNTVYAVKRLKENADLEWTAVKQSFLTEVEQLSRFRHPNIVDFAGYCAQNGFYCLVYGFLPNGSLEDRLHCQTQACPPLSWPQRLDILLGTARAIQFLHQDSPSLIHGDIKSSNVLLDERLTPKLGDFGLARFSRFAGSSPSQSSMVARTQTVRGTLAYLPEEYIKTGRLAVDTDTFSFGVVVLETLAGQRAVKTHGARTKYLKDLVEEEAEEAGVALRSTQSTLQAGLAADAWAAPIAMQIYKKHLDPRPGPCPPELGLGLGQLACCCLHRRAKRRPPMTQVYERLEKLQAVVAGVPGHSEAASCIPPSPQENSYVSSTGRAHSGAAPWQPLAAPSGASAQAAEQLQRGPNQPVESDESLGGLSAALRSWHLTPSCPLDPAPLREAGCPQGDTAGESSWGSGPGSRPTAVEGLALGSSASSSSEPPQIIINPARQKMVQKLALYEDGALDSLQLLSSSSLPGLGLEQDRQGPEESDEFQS

IC50 (FLT3) [nM]	IC50 (IRAK1) [nM]	IC50 (MOLM14 F691L cells; Homo sapiens, MOLM-14, 48 h) [nM]	IC50 (MOLM14 D835Y cells; Homo sapiens, MOLM-14, 48 h) [nM]	IC50 (IRAK4) [nM]	IC50 (MOLM14 F691L cells; 48 hours) [nM]	IC50 (MOLM14 D835Y cells; 48 hours) [nM]	Structure (SMILES)
< 0.5	329	486	344	28			CC(O)(c1cn2c(-c3cc(F)cc(N[C@H]4CNC[C@@H]4F)n3)cnc2cn1)C(F)(F)F (single isomer, unassigned) [Compound 83]
0.6	114			2	410	183	CC(O)(c1cn2c(-c3cc(F)cc(N[C@H]4CNC[C@@H]4F)n3)cnc2cn1)C(F)(F)F (single isomer, unassigned) [Compound 84]
0.6	106	290	154	54			CC(O)(c1cn2c(-c3cc(F)cc(N[C@@H]4CCCNC4)n3)cnc2cn1)C(F)(F)F (single isomer, unassigned) [Compound 85]
0.9	144	365		65		205	CC(O)(c1cn2c(-c3cc(F)cc(N[C@H]4CNCC[C@@H]4F)n3)cnc2cn1)C(F)(F)F (single isomer, unassigned) [Compound 86]
0.7	46			5	309	116	CC(O)(c1cn2c(-c3cc(F)cc(N[C@@H]4CCCNC4)n3)cnc2cn1)C(F)(F)F (single isomer, unassigned) [Compound 87]
1	69			15	217	97	CC(O)(c1cn2c(-c3cc(F)cc(N[C@H]4CNCC[C@@H]4F)n3)cnc2cn1)C(F)(F)F (single isomer, unassigned) [Compound 88]
< 0.5	9	649		< 0.5		41	CC(O)(c1cn2c(-c3nc(N[C@@H]4CCCNC4)c(F)cc3F)cnc2cn1)C(F)(F)F (single isomer, unassigned) [Compound 89]
2	16			7	817	96	CC(O)(c1cn2c(-c3nc(N[C@@H]4CCCNC4)c(F)cc3F)cnc2cn1)C(F)(F)F (single isomer, unassigned) [Compound 90]
3	40	1540		2		195	CC(O)(c1cn2c(-c3nc(N[C@H]4CNC[C@@H]4F)c(F)cc3F)cnc2cn1)C(F)(F)F (single isomer, unassigned) [Compound 91]
2	11	969	87	2			CC(O)(c1cn2c(-c3nc(N[C@H]4CNCC[C@@H]4F)c(F)cc3F)cnc2cn1)C(F)(F)F (single isomer, unassigned) [Compound 92]
1	8			< 0.5	969	73	CC(O)(c1cn2c(-c3nc(N[C@H]4CNC[C@@H]4F)c(F)cc3F)cnc2cn1)C(F)(F)F (single isomer, unassigned) [Compound 93]
1	8			0.8	864	77	CC(O)(c1cn2c(-c3nc(N[C@H]4CNCC[C@@H]4F)c(F)cc3F)cnc2cn1)C(F)(F)F (single isomer, unassigned) [Compound 94]
< 0.5	67	34	7	0.7			CC1(c2cn3c(-c4cccc(N[C@@H]5CCCNC5)n4)cnc3cn2)CC1 [Compound 2, (R)-6-(6-(1-methylcyclopropyl)imidazo[1,2-a]pyrazin-3-yl)-N-(piperidin-3-yl)pyridin-2-amine]
< 0.5	138	376	44	2			F[C@H]1CNC[C@@H]1Nc1cccc(-c2cnc3cnc(C4(C(F)(F)F)CC4)cn23)n1 [Compound 8, N-((3S,4S)-4-fluoropyrrolidin-3-yl)-6-(6-(1-(trifluoromethyl)cyclopropyl)imidazo[1,2-a]pyrazin-3-yl)pyridin-2-amine]
< 0.5	126	106	18	7			FC(F)(F)C1(c2cn3c(-c4cccc(N[C@@H]5CCCNC5)n4)cnc3cn2)CC1 [Compound 9, (R)-N-(piperidin-3-yl)-6-(6-(1-(trifluoromethyl)cyclopropyl)imidazo[1,2-a]pyrazin-3-yl)pyridin-2-amine]
< 0.5	165	72	7	3			FC(F)(F)C1(c2cn3c(-c4cccc(N[C@H]5CNCC56CC6)n4)cnc3cn2)CC1 [Compound 12, (R)-N-(6-(6-(1-(trifluoromethyl)cyclopropyl)imidazo[1,2-a]pyrazin-3-yl)pyridin-2-yl)-5-azaspiro[2.4]heptan-7-amine]
< 0.5	196		9	1			Cn1cc(-c2cn3c(-c4cccc(N[C@@H]5CCNC5)n4)cnc3cn2)cn1 [Compound 49, (R)-6-(6-(1-methyl-1H-pyrazol-4-yl)imidazo[1,2-a]pyrazin-3-yl)-N-(pyrrolidin-3-yl)pyridin-2-amine]
		237	84				CC(O)(c1cn2c(-c3cccc(N[C@@H]4CCCNC4)n3)cnc2cn1)C(F)(F)F (stereo partly drawn) [Compound 79, 1,1,1-trifluoro-2-(3-(6-((R)-piperidin-3-ylamino)pyridin-2-yl)imidazo[1,2-a]pyrazin-6-yl)propan-2-ol]
